Assay results reported in PubChem BioAssay (NCI).
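Step 1: Grow cells in 96-well plates. Step 2: Expose to compound for 48 hours at 5 concentrations. Step 3: Interpolate endpoints linearly; if unreached, use highest concentration. TGI marks complete inhibition of growth.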

Assays:
Assay in all cases: NCI tumour cell line growth inhibition, 48 h
OVCAR-3 ovarian = tested on: OVCAR-3 ovarian
OVCAR-4 ovarian = tested on: OVCAR-4 ovarian
TK-10 renal = tested on: TK-10 renal
NCI-H226 lung = tested on: NCI-H226 lung
K-562 leukemia = tested on: K-562 leukemia
NCI-H23 lung = tested on: NCI-H23 lung
KM12 colon = tested on: KM12 colon
RXF-631 renal = tested on: RXF-631 renal
EKVX NSCLC = tested on: EKVX NSCLC
UACC-257 melanoma = tested on: UACC-257 melanoma
M14 melanoma = tested on: M14 melanoma
DLD-1 colon = tested on: DLD-1 colon
LXFL 529 NSCLC = tested on: LXFL 529 NSCLC
NCI-H522 lung = tested on: NCI-H522 lung
HL-60(TB) leukemia = tested on: HL-60(TB) leukemia
UACC-62 melanoma = tested on: UACC-62 melanoma
LOX IMVI melanoma = tested on: LOX IMVI melanoma
A549 NSCLC = tested on: A549 NSCLC
UO-31 renal = tested on: UO-31 renal
SN12C renal = tested on: SN12C renal
NCI-H460 lung = tested on: NCI-H460 lung
SF-295 CNS = tested on: SF-295 CNS
SW-620 colon = tested on: SW-620 colon
HCT-116 colon = tested on: HCT-116 colon
OVCAR-5 ovarian = tested on: OVCAR-5 ovarian
SNB-75 CNS = tested on: SNB-75 CNS
IGROV1 ovarian = tested on: IGROV1 ovarian
M19-MEL melanoma = tested on: M19-MEL melanoma
SF-539 CNS = tested on: SF-539 CNS
CAKI-1 renal = tested on: CAKI-1 renal
A498 renal = tested on: A498 renal
MOLT-4 leukemia = tested on: MOLT-4 leukemia
SK-MEL-28 melanoma = tested on: SK-MEL-28 melanoma
MALME-3M melanoma = tested on: MALME-3M melanoma
SF-268 CNS = tested on: SF-268 CNS
COLO 205 colon = tested on: COLO 205 colon
SK-OV-3 ovarian = tested on: SK-OV-3 ovarian
HOP-62 NSCLC = tested on: HOP-62 NSCLC
SNB-19 CNS = tested on: SNB-19 CNS
HOP-92 NSCLC = tested on: HOP-92 NSCLC
DMS 114 small cell lung = tested on: DMS 114 small cell lung
HOP-18 NSCLC = tested on: HOP-18 NSCLC
U251 CNS = tested on: U251 CNS
RPMI-8226 leukemia = tested on: RPMI-8226 leukemia
HT29 colon = tested on: HT29 colon
HCT-15 colon = tested on: HCT-15 colon
ACHN renal = tested on: ACHN renal
RXF 393 renal = tested on: RXF 393 renal
786-0 renal = tested on: 786-0 renal
SNB-78 CNS = tested on: SNB-78 CNS
OVCAR-8 ovarian = tested on: OVCAR-8 ovarian
DMS 273 small cell lung = tested on: DMS 273 small cell lung
XF 498 CNS = tested on: XF 498 CNS
KM20L2 colon = tested on: KM20L2 colon
SR leukemia = tested on: SR leukemia
HCC-2998 colon = tested on: HCC-2998 colon
CCRF-CEM leukemia = tested on: CCRF-CEM leukemia
SK-MEL-2 melanoma = tested on: SK-MEL-2 melanoma

Measured: TGI

CN(C)/C(N)=N/C(N)=S
> 100 µM: OVCAR-3 ovarian | OVCAR-4 ovarian | TK-10 renal | NCI-H226 lung | K-562 leukemia | NCI-H23 lung | KM12 colon | RXF-631 renal | EKVX NSCLC | UACC-257 melanoma | M14 melanoma | DLD-1 colon | LXFL 529 NSCLC | NCI-H522 lung | HL-60(TB) leukemia | UACC-62 melanoma | LOX IMVI melanoma | A549 NSCLC | UO-31 renal | SN12C renal | NCI-H460 lung | SF-295 CNS | SW-620 colon | HCT-116 colon | OVCAR-5 ovarian | SNB-75 CNS | IGROV1 ovarian | M19-MEL melanoma | SF-539 CNS | CAKI-1 renal | A498 renal | MOLT-4 leukemia | SK-MEL-28 melanoma | MALME-3M melanoma | SF-268 CNS | COLO 205 colon | SK-OV-3 ovarian | HOP-62 NSCLC | SNB-19 CNS | HOP-92 NSCLC | DMS 114 small cell lung | HOP-18 NSCLC | U251 CNS | RPMI-8226 leukemia | HT29 colon | HCT-15 colon | ACHN renal | RXF 393 renal | 786-0 renal | SNB-78 CNS | OVCAR-8 ovarian | DMS 273 small cell lung | XF 498 CNS | KM20L2 colon | SR leukemia | HCC-2998 colon

COC(=O)NN1C(C)=C(C(=O)OC)C2(CCOC2=O)C1(C)O (stereo not given)
> 100 µM: OVCAR-3 ovarian | OVCAR-4 ovarian | TK-10 renal | NCI-H226 lung | K-562 leukemia | NCI-H23 lung | KM12 colon | RXF-631 renal | EKVX NSCLC | UACC-257 melanoma | M14 melanoma | DLD-1 colon | LXFL 529 NSCLC | NCI-H522 lung | HL-60(TB) leukemia | UACC-62 melanoma | LOX IMVI melanoma | CCRF-CEM leukemia | A549 NSCLC | UO-31 renal | SN12C renal | NCI-H460 lung | SF-295 CNS | SW-620 colon | HCT-116 colon | OVCAR-5 ovarian | IGROV1 ovarian | SF-539 CNS | CAKI-1 renal | A498 renal | MOLT-4 leukemia | SK-MEL-28 melanoma | SK-MEL-2 melanoma | MALME-3M melanoma | SF-268 CNS | COLO 205 colon | SK-OV-3 ovarian | HOP-62 NSCLC | SNB-19 CNS | HOP-92 NSCLC | DMS 114 small cell lung | HOP-18 NSCLC | U251 CNS | RPMI-8226 leukemia | HT29 colon | HCT-15 colon | ACHN renal | 786-0 renal | SNB-78 CNS | OVCAR-8 ovarian | DMS 273 small cell lung | XF 498 CNS | KM20L2 colon | HCC-2998 colon
